# Measured values published in US8703723B2, “Glycoside compounds and pharmaceutical compositions thereof” (Centrose, LLC, priority 2009, dated 2014).
# Like-named read-outs stand apart in the source and are kept apart here.
# Tests used:
# [1] = tested on: A549 (NSCLC) cell line; experiment: Cancer cell cytotoxicity assay (Calcein AM / Cell Titer-Glo), A549; format: cell-based, human
# Procedure: (§1) Compounds of the invention and comparative compounds were assayed in three cancer cell lines to confirm cytotoxic activity and to set a range of concentrations to use in subsequent assays. All cell lines were maintained in RPMI medium 1640 supplemented with 10% (wt/vol) fetal bovine serum and penicillin-streptomycin (100 units/ml and 100 μg/ml). Cells were routinely checked for microbial or mycoplasma contamination and if necessary replaced. Cells were harvested by trypsinization using 0.25% trypsin and 0.1% EDTA and then counted in a ViCell XR coulter counter in duplicate, before and after dilution for assay plating. Between four to nine different types of human cancer cells were plated at a density of 10,000-15,000 cells per well of each 96-well black tissue culture treated microtiter plate, then were grown for 1 hour at 37° C. with 5% CO2/95% air in a humidified incubator to allow cells to attach before compound addition. Compound stocks (100×) were prepared in 96-well V-bottom polypropylene microtiter plates. Five serial (1:2) dilutions were made with anhydrous DMSO at 100× the final concentration used in the assay. The individual wells in compound-containing […] well plates were diluted 1:10 with complete cell culture medium and the 10× (10 μL) stocks were added to 90 μl of cells in each plate to ensure full mixing of stocks with culture media by using a Biomek FX liquid handler with 96-well head. Doxorubicin was used as the control to monitor the behavior of each cell line. Cells were incubated with the compounds for 3 to 4 days before fluorescence and luminescence reading. Test plates were removed from the incubator and washed once in sterile PBS to remove serum containing calcium esterases. Calcein AM (acetoxymethyl ester) reagent was added and the cells were incubated for 30 min at 37° C. Plates were read for emission by using a fluorescein filter (excitation 485 nm, emission 535 nm). An equal volume (30 μL) of Cell Titer-Glo reagent (Promega Corporation, Inc.) was added and incubated for 10 min at room temperature with gentle agitation to lyse the cells. Each plate was re-read for luminescence to confirm the inhibition observed in the fluorescent […] assay as a measure of cell viability. The cancer cell cytotoxicity assays were run in triplicate using ≧5 different drug concentrations, and the data were analyzed to establish statistical significance and a valid IC50 value for inhibition of cell growth, based on ≧2 log differences in drug effect.
# (§2) The cancer cell cytotoxicities (determined substantially according to the method of Example 5) of various compounds of the invention and comparative compounds as determined in four to five different human cancer cell lines are shown in Table 1. The structures of the compounds listed are found in FIGS. 2-4.
# [2] = tested on: H1299 (NSCLC) cell line; experiment: Cancer cell cytotoxicity assay (Calcein AM / Cell Titer-Glo), H1299; format: cell-based, human
# Procedure: as §1, §2
# [3] = tested on: NCI-H460 (NSCLC) cell line; experiment: Cancer cell cytotoxicity assay (Calcein AM / Cell Titer-Glo), NCI-H460; format: cell-based, human
# Procedure: as §1, §2
# [4] = tested on: HT29 (Colorectal) cell line; experiment: Cancer cell cytotoxicity assay (Calcein AM / Cell Titer-Glo), HT29; format: cell-based, human
# Procedure: as §1, §2
# [5] = tested on: SKOV3 (Ovarian) cell line; experiment: Cancer cell cytotoxicity assay (Calcein AM / Cell Titer-Glo), SKOV3; format: cell-based, human
# Procedure: as §1, §2
# [6] = tested on: human cancer cell lines; experiment: Cancer cell cytotoxicity, summary over four to five human cancer cell lines; format: cell-based; conditions: read-out: IC50 values (cancer cell cytotoxicity)
# Procedure: as §1, §2
# [7] = tested on: A549 (NSCLC) cell line; conditions: footnote 2: data from Langenhan et al. 2005; cited from earlier work
# [8] = tested on: NCI-H460 (NSCLC) cell line; conditions: footnote 2: data from Langenhan et al. 2005; cited from earlier work
# [9] = tested on: SKOV3 (Ovarian) cell line; conditions: footnote 2: data from Langenhan et al. 2005; cited from earlier work
# [10] = Homo sapiens, A549, NSCLC, footnote 5: determined at same time as CEN08-193
# [11] = Homo sapiens, NCI-H1299, NSCLC, footnote 5: determined at same time as CEN08-193
# [12] = Homo sapiens, NCI-H460, NSCLC, footnote 5: determined at same time as CEN08-193
# [13] = Homo sapiens, HT-29, Colorectal, footnote 5: determined at same time as CEN08-193
# [14] = Homo sapiens, SK-OV-3, Ovarian, footnote 5: determined at same time as CEN08-193
# [15] = Ovarian, assay set not specified
# [16] = Homo sapiens, A549, NSCLC, footnote 6: determined at same time as CEN08-243 and -244
# [17] = Homo sapiens, NCI-H1299, NSCLC, footnote 6: determined at same time as CEN08-243 and -244
# [18] = Homo sapiens, NCI-H460, NSCLC, footnote 6: determined at same time as CEN08-243 and -244
# [19] = Homo sapiens, SK-OV-3, Ovarian, footnote 6: determined at same time as CEN08-243 and -244
# [20] = NSCLC, footnote 7: determined at same time as CEN08-180
Compound,IC50 [6] [nM],"IC50 ([1]; NSCLC, assay set not specified) [nM]","IC50 ([2]; NSCLC, assay set not specified) [nM]","IC50 ([3]; NSCLC, assay set not specified) [nM]","IC50 [5, 15] [nM]","IC50 [1, 16] [nM]","IC50 [2, 17] [nM]","IC50 [3, 18] [nM]","IC50 [5, 19] [nM]",further results
C[C@]12CCC(OC3OC[C@H](O)[C@@H](O)[C@@H]3O)C[C@H]1CCC1C2CC[C@]2(C)[C@@H](C3=CCOC3=O)CC[C@]12O (stereo partly drawn) [CEN08-193],< 80,–,–,–,–,–,–,–,–,"IC50 [1, 10]: 4 nM; IC50 [2, 11]: 6 nM; IC50 [3, 12]: 9 nM; IC50 [4, 13]: 11 nM; IC50 [5, 14]: 51 nM"
CON(C1C=C2CCC3C(CCC4(C)C(c5ccc(=O)oc5)CCC34O)C2(C)CC1)C1OC(CO)C(O)C(O)C1N (stereo not drawn) [CEN08-237],–,21,20,37,–,–,–,–,–,–
CON(C1CCC2(C)C(CCC3C2CCC2(C)C(C4=CC(=O)OC4)CCC32O)C1)C1OCC(N)C(O)C1O (stereo not drawn) [CEN08-241],–,20,24,27,74,–,–,–,–,–
CON(C1CCC2(C)C(CCC3C2CCC2(C)C(C4=CC(=O)OC4)CCC32O)C1)C1OCC(N)C(O)C1O (stereo not drawn) [CEN08-242],–,50,159,74,228,–,–,–,–,–
"CON(C1C=C2CCC3C(CC[C@]4(C)[C@@H](c5ccc(=O)oc5)CC[C@]34O)[C@@]2(C)CC1)[C@H]1OC[C@H](N)[C@H](O)C1O (stereo partly drawn) [CEN08-243, (3S)-3-N-methoxyamino-scillarenin-L-neo-4-amino-4-deoxyxyloside]",< 80,–,–,–,–,3,7,5,5,–
"CON(C1OC[C@H](N)[C@H](O)[C@@H]1O)[C@@H]1C=C2CCC3C(CC[C@]4(C)[C@@H](c5ccc(=O)oc5)CC[C@]34O)[C@@]2(C)CC1 (stereo partly drawn) [CEN08-244, (3S)-3-N-methoxyamino-scillarenin-L-neo-4-amino-4-deoxyriboside]",< 80,–,–,–,–,4,10,6,6,–
CC1OC(=O)C=C1C1CCC2(O)C3CCC4CC(OC5OCC(O)C(O)C5O)CCC4(C)C3CCC12C (stereo not drawn) [CEN08-245],–,1290,3700,2100,3220,–,–,–,–,–
C[C@H]1O[C@@H](O[C@H]2[C@@H](O)C[C@H](O[C@H]3[C@@H](O)C[C@H](O[C@H]4CC[C@@]5(C)[C@H](CC[C@@H]6[C@@H]5CC[C@]5(C)[C@@H](C7=CC(=O)OC7)CC[C@]65O)C4)O[C@@H]3C)O[C@@H]2C)C[C@H](O)[C@@H]1O [Digitoxin],–,–,–,–,–,–,–,–,–,IC50 [7]: 280 nM; IC50 [8]: 280 nM; IC50 [9]: 700 nM
"C[C@@H]1O[C@@H](O[C@@H]2C=C3CC[C@@H]4[C@H](CC[C@]5(C)[C@@H](c6ccc(=O)oc6)CC[C@]45O)[C@@]3(C)CC2)[C@H](O)[C@H](O)[C@H]1O [proscillaridin, reference compound]",–,–,–,–,–,12,8,12,15,"IC50 ([1]; Homo sapiens, A549, NSCLC, footnote 7: determined at same time as CEN08-180): 3 nM; IC50 [1, 10]: 2 nM; IC50 ([2]; Homo sapiens, NCI-H1299, NSCLC, footnote 7: determined at same time as CEN08-180): 4 nM; IC50 [2, 11]: 3 nM; IC50 ([3]; Homo sapiens, NCI-H460, NSCLC, footnote 7: determined at same time as CEN08-180): 11 nM; IC50 [3, 12]: 5 nM; IC50 ([4]; Homo sapiens, HT-29, Colorectal, footnote 7: determined at same time as CEN08-180): 10 nM; IC50 [4, 13]: 7 nM; IC50 ([5]; Homo sapiens, SK-OV-3, Ovarian, assay set not specified): 12 nM; IC50 ([5]; Homo sapiens, SK-OV-3, Ovarian, footnote 7: determined at same time as CEN08-180): 11 nM; IC50 [5, 14]: 45 nM"
(3β)-3-N-methoxyaminoscillarenin [CEN08-180],–,–,–,–,–,–,–,–,–,"IC50 [1, 20]: 3 nM; IC50 [2, 20]: 8 nM; IC50 [3, 20]: 13 nM; IC50 ([4]; Colorectal, footnote 7: determined at same time as CEN08-180): 26 nM; IC50 ([5]; Ovarian, footnote 7: determined at same time as CEN08-180): 34 nM"
